Data reported in PubChem BioAssay (NCI).
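In this assay, cells in 96-well plates receive the compound at five concentrations for 48 hours. Endpoints are linearly interpolated between the surrounding concentrations. TGI denotes the concentration required for complete inhibition of growth.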

Tests used:
Assay in all cases: NCI anticancer screen, dose series, 48 h
[1] = tested on: 786-0 renal
[2] = tested on: A498 renal
[3] = tested on: A549 NSCLC
[4] = tested on: ACHN renal
[5] = tested on: BT-549 breast
[6] = tested on: CAKI-1 renal
[7] = tested on: CCRF-CEM leukemia
[8] = tested on: COLO 205 colon
[9] = tested on: DU-145 prostate
[10] = tested on: EKVX NSCLC
[11] = tested on: HCC-2998 colon
[12] = tested on: HCT-116 colon
[13] = tested on: HCT-15 colon
[14] = tested on: HL-60(TB) leukemia
[15] = tested on: HOP-62 NSCLC
[16] = tested on: HOP-92 NSCLC
[17] = tested on: HS 578T breast
[18] = tested on: HT29 colon
[19] = tested on: IGROV1 ovarian
[20] = tested on: KM12 colon
[21] = tested on: LOX IMVI melanoma
[22] = tested on: M14 melanoma
[23] = tested on: MALME-3M melanoma
[24] = tested on: MCF7 breast
[25] = tested on: MDA-MB-231 breast
[26] = tested on: MDA-MB-435
[27] = tested on: MDA-N
[28] = tested on: MOLT-4 leukemia
[29] = tested on: NCI-H226 lung
[30] = tested on: NCI-H23 lung
[31] = tested on: NCI-H460 lung
[32] = tested on: NCI-H522 lung
[33] = tested on: NCI/ADR-RES ovarian
[34] = tested on: OVCAR-3 ovarian
[35] = tested on: OVCAR-4 ovarian
[36] = tested on: OVCAR-5 ovarian
[37] = tested on: OVCAR-8 ovarian
[38] = tested on: PC-3 prostate
[39] = tested on: RPMI-8226 leukemia
[40] = tested on: RXF 393 renal
[41] = tested on: SF-268 CNS
[42] = tested on: SF-295 CNS
[43] = tested on: SF-539 CNS
[44] = tested on: SK-MEL-2 melanoma
[45] = tested on: SK-MEL-28 melanoma
[46] = tested on: SK-MEL-5 melanoma
[47] = tested on: SK-OV-3 ovarian
[48] = tested on: SN12C renal
[49] = tested on: SNB-19 CNS
[50] = tested on: SNB-75 CNS
[51] = tested on: SR leukemia
[52] = tested on: SW-620 colon
[53] = tested on: T-47D breast
[54] = tested on: TK-10 renal
[55] = tested on: U251 CNS
[56] = tested on: UACC-257 melanoma
[57] = tested on: UACC-62 melanoma
[58] = tested on: UO-31 renal
[59] = tested on: K-562 leukemia

Measured: TGI

CC(=O)NNc1nc(C)c(C(/C=C/c2ccc([N+](=O)[O-])cc2)=N/NC(N)=S)s1
not listed: [59]
> 100 µM: all other assays above

CCOP(=O)(C/C=C/Cn1nc(Br)c(=O)[nH]c1=O)OCC
not listed: [47]
> 100 µM: all other assays above
